Measurements from patent publication US20060205826A1, “Method of using carotenoids in the prevention of cognitive decline and for other neuroprotection functions” (priority 2005, published 2006).

Legend:
GPx activity = conditions: diabetic animals; Miranda et al., 2004; cited from earlier work
alloxan diabetic mice = conditions: diabetic animals; Miranda et al., 2004; cited from earlier work
NF-κB = NF-κB activity (TransAm Kit) in retina and hippocampus of diabetic mice; format: in vivo; conditions: 15 days post alloxan, lutein treatment before and after diabetes induction
Procedure: Male albino mice were used throughout the study, housed in a environmentally regulated room on a dark-light cycle of 12 hours with free access to food and water. Principles of laboratory animal care (NIH publication no. 85-23, revised 1985) were followed, as well as specific Spanish regulations. Animals were made diabetic with a single subcutaneous injection of 200 mg alloxan/kg body weight (66 mg/ml) in 0.1 M citrate buffer, pH 4.5, at day 0 of the experiment. Control mice were injected with the same volume of vehicle also at day 0 of the experiment. Mice were identified as diabetic on the basis of blood glucose levels (higher than 16 mM at least 4 days after alloxan treatment). Animals were divided into subgroups as required by the experiment (control, control+lutein, diabetic, diabetic+lutein, diabetic+insulin, diabetic+insulin+lutein). […] Insulin treated animals were injected daily with 500 mU/g body weight since day 4 until the end of the experiment. Mice were killed by cervical dislocation on day 14, and hippocampus and retina were removed and homogenized in pre-chilled 0.2 M potassium phosphate buffer, pH 7.0. […] Glycated hemoglobin was determined in blood samples obtained by heart puncture immediately before killing the animals. NF-κB activity was determined with TransAm Kit (Active Motif) that combines an ELISA test with an specific assay for transcription factors. […]

## CC1=C[C@H](O)CC(C)(C)[C@H]1/C=C/C(C)=C/C=C/C(C)=C/C=C/C=C(C)/C=C/C=C(C)/C=C/C1=C(C)C[C@@H](O)CC1(C)C [Lutein]
GPx activity
  glutathione peroxidase activity of the retinas: restored
Alloxan diabetic mice
  b-wave amplitude of the electroretinogram: restored
NF-κB
  NF-κB expression in hippocampus: decreased
  NF-κB expression in retina: decreased
